The text below walks through data of patent publication US11958843B1, “2-(benzo[d]oxazol-2-yl)-n′-(2-(5-phenyl-1,3,4-oxadiazol-2-ylthio)acetoxy)acetimidamide as an antimicrobial compound” (priority 2023, dated 2024).

The test system of the assay is Bacillus cereus, Staphylococcus aureus, Pseudomonas aeruginosa, Escherichia coli, Aspergillus flavus, Chrysosporium keratinophilum. Kind of assay: Agar plate disc-diffusion antimicrobial activity. It is filed as cell-based. The settings on record: disc wetted with 10 μL of 10 mg/mL in DMSO; 37° C., 48 h (72 h for fungi); gram positive and gram-negative bacteria and fungi; result in words only. How it is done: The agar plate disc-diffusion method was applied. Sterilized filter papers (6 mm in diameter) were wetted with 10 μL of a solution of 2-(benzo[d]oxazol-2-yl)-N′-(2-(5-phenyl-1,3,4-oxadiazol-2-ylthio)acetoxy)acetimidamide (3) to be tested, containing 10 mg/mL in DMSO, and the discs were allowed to air dry. The discs were then placed onto the surface of agar plates (nutrient agar for bacteria and Sabouraud's dextrose agar for fungi) seeded with the test organism. Each plate contained 15 mL of the agar medium, previously seeded with 0.2 mL of the broth culture of each organism pregrown for 18 hours. The plates were incubated at 37° C. for 48 h, and 72 h for fungi. The inhibition zones were measured in mm. Discs impregnated with DMSO were used as a control, and its inhibition zone was subtracted from the tested compound actual inhibition zone. […] The antibacterial activity was screened against gram positive bacteria namely Bacillus cereus and Staphylococcus aureus and gram-negative bacterial strains namely Pseudomonas aeruginosa and Escherichia coli, while the antifungal activity was screened against Aspergillus flavus and Chrysosporium keratinophilum.
(Agar diffusion results depend on both activity and mobility in agar.)

SMILES strings stand for the structures.

On to `N/C(Cc1nc2ccccc2o1)=N\OC(=O)CSc1nnc(-c2ccccc2)o1` [compound 3, 2-(benzo[d]oxazol-2-yl)-N′-(2-(5-phenyl-1,3,4-oxadiazol-2-ylthio)acetoxy)acetimidamide], for which the “antimicrobial activities (inhibition zones)” value is listed as “high antimicrobial activities”.
